pIC50, pKd: −log10 of the molar value.
Experiments:
Myeloperoxidase [1] = biological target: T1, Myeloperoxidase (Homo sapiens, UniProt P05164); assay: Myeloperoxidase Assay; details: pH 6.5
T1 sequence (P05164 whole entry): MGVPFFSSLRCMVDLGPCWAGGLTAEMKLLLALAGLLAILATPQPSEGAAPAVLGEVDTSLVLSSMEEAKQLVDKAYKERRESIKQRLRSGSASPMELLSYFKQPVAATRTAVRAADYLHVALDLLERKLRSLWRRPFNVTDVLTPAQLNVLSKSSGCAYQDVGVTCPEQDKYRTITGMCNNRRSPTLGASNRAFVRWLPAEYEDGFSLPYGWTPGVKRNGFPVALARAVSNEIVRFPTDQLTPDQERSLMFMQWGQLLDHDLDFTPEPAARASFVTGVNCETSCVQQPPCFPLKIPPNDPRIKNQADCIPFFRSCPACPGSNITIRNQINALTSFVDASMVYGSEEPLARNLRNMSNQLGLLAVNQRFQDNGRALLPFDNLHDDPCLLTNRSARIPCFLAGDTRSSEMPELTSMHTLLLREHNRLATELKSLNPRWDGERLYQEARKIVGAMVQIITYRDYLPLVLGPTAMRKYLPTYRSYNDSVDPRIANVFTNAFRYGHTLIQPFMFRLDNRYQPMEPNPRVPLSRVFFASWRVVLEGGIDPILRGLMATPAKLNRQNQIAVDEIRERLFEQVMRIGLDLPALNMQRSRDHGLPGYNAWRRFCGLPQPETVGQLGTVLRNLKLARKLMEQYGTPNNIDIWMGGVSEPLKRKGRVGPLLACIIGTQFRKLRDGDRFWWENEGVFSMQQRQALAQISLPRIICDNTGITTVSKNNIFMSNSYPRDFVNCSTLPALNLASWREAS
Method: Assays were performed at 22 °C with 2 nM MPO and 10 μM hydrogen peroxide (H2O2) in 20 mM NaH2PO4 buffer, pH 6.5 containing 140 mM NaCl, 10 mM taurine, and 1 mM L-tyrosine. Inhibitor compounds were preincubated with MPO for 15 min prior to the addition of H2O2, and the accumulation of taurine chloramine was determined after 1 min.

Myeloperoxidase [2] = biological target: T1, Myeloperoxidase; assay: Surface Plasmon Resonance (SPR); details: pH 5
Method: Binding kinetics were determined by surface plasmon resonance (SPR) using a Biacore S51 (Biacore, Uppsala, Sweden). MPO (50 μg/ml dissolved in 10 mM sodium acetate, pH 5.0) was immobilized onto the surface of CM5 sensor chips (Biacore) using surface amine coupling. One of the spots on the sensor surface was left without MPO to control for nonspecific binding. The signal observed in response to analyte binding was as expected linearly related to the amount of immobilized ligand, and 10,000 response units was routinely used to characterize compoundbinding (data not shown). Compounds were dissolved in binding buffer (10 mM HEPES, pH 7.4, 150 mM NaCl, 3 mM Na2EDTA, 0.005% (w/v) surfactant P20, 1% (v/v) DMSO final), and association was assessed during 60-210-s injections. After this time, analyte injection was terminated, and the chip surface was perfused with binding buffer at 30 μl/min for 4-12 min to monitor compound dissociation.

Lactoperoxidase = Lactoperoxidase (Bos taurus, UniProt P80025); assay: LPO/TPO Selectivity Assay
Method: (§1) The halogenation activities of LPO (EC 1.11.1.7) and TPO (EC 1.11.1.8) were determined using a modified method of that described previously [Ferrari et al., J. Inorg. Biochem., 68:61-69].

Thyroid peroxidase = biological target: T2, Thyroid peroxidase (Homo sapiens, UniProt P07202); assay: LPO/TPO Selectivity Assay
T2 sequence (P07202 whole entry): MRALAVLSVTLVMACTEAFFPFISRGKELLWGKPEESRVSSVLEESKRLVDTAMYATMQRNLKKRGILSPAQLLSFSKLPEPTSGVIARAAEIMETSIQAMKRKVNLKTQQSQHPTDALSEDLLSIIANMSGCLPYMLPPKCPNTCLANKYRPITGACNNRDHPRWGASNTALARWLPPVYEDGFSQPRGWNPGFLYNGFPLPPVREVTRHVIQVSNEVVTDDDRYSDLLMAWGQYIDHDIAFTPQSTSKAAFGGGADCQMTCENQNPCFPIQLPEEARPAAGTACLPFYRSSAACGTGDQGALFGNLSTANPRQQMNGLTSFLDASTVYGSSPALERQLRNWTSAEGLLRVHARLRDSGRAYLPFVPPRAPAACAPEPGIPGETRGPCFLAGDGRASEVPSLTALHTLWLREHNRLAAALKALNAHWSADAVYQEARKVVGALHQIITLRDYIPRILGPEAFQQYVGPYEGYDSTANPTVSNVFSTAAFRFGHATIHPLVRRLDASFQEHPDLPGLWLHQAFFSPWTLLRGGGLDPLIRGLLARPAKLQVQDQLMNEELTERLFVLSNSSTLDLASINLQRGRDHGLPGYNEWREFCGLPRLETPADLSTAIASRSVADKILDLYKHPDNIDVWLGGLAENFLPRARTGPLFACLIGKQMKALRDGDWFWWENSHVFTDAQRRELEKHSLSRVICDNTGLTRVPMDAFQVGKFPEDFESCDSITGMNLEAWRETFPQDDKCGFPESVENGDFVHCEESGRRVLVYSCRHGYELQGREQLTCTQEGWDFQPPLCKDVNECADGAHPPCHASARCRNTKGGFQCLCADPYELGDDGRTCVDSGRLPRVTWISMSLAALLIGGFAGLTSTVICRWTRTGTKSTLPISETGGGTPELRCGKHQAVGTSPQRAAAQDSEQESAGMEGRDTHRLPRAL
Method: as §1

Compound	pIC50 (Myeloperoxidase [1])	pKd (Myeloperoxidase [2])	pIC50 (Lactoperoxidase)	pIC50 (Thyroid peroxidase)
O=C(NO)c1ccc(Cc2ccccc2)cc1O [4-benzyl-2-hydroxybenzenecarbohydroxamic acid (HX2)]	7.60	7.20	7.40	7.20
O=C(NO)c1c[nH]c(NCc2ccccc2)nc1=O [2-(benzylamino)-6-oxo-3H-pyrimidine-5-carbohydroxamic acid (HX3)]	6.10	5.70	5.70	5.80
O=C(NO)c1ccccc1O [Salicylic hydroxamic acid]	4.60			5.70
O=C(NO)c1c[nH]c(NCc2cc(C(F)(F)F)cc(C(F)(F)F)c2)nc1=O [2-(3,5-bistrifluoromethylbenzylamino)-6-oxo-1H-pyrimidine-5-carbohydroxamic acid (HX1)]			5.20	5.80
